{
  "source": "patent US9895453B1",
  "about": "“Shiny ultrasound gel” (priority 2016, dated 2018)",
  "origin": "cited, not measured here",
  "key": {"Ps. cepacia": {"tested_on": "Ps. cepacia", "conditions": "initial inoculum 2.7 × 10^6 per gram product, 0.7% Suttocide A"}},
  "data": [
    {"smiles": "O=C([O-])CNCO.[Na+]", "note": "[Suttocide® A, Sodium Hydroxymethylglycinate]", "values": [
      {"measurement": "organism growth (count) at 48 hours", "setting": "Ps. aeruginosa; Ps. aeruginosa, 48 hours, initial inoculum 9.5 × 10^6 per gram product, 0.7% Suttocide A", "result": "<10"},
      {"measurement": "organism growth (count) at 7 days", "setting": "Ps. aeruginosa; Ps. aeruginosa, 7 days, initial inoculum 9.5 × 10^6 per gram product, 0.7% Suttocide A", "result": "<10"},
      {"measurement": "organism growth (count) at 28 days", "setting": "Ps. aeruginosa; Ps. aeruginosa, 28 days, initial inoculum 9.5 × 10^6 per gram product, 0.7% Suttocide A", "result": "<10"},
      {"measurement": "kills at a concentration of", "setting": "Ps. aeruginosa; Pseudomonas aeruginosa, TABLE 1", "result": 0.7, "unit": "%"},
      {"measurement": "organism growth (count) at 48 hours", "setting": "E. Coli; E. Coli, 48 hours, initial inoculum 6.0 × 10^6 per gram product, 0.7% Suttocide A", "result": "<10"},
      {"measurement": "organism growth (count) at 7 days", "setting": "E. Coli; E. Coli, 7 days, initial inoculum 6.0 × 10^6 per gram product, 0.7% Suttocide A", "result": "<10"},
      {"measurement": "organism growth (count) at 28 days", "setting": "E. Coli; E. Coli, 28 days, initial inoculum 6.0 × 10^6 per gram product, 0.7% Suttocide A", "result": "<10"},
      {"measurement": "kills at a concentration of", "setting": "E. Coli; Escheria coli, TABLE 1", "result": 0.7, "unit": "%"},
      {"measurement": "organism growth (count) at 48 hours", "setting": "Staph aureus; Staph aureus, 48 hours, initial inoculum 7.3 × 10^6 per gram product, 0.7% Suttocide A", "result": "<10"},
      {"measurement": "organism growth (count) at 7 days", "setting": "Staph aureus; Staph aureus, 7 days, initial inoculum 7.3 × 10^6 per gram product, 0.7% Suttocide A", "result": "<10"},
      {"measurement": "organism growth (count) at 28 days", "setting": "Staph aureus; Staph aureus, 28 days, initial inoculum 7.3 × 10^6 per gram product, 0.7% Suttocide A", "result": "<10"},
      {"measurement": "kills at a concentration of", "setting": "Staph aureus; Staphylococcus aureus, TABLE 1", "result": 0.7, "unit": "%"},
      {"measurement": "organism growth (count) at 48 hours", "setting": "A. niger; A. niger, 48 hours, initial inoculum 8.0 × 10^6 per gram product, 0.7% Suttocide A", "result": "<10"},
      {"measurement": "organism growth (count) at 7 days", "setting": "A. niger; A. niger, 7 days, initial inoculum 8.0 × 10^6 per gram product, 0.7% Suttocide A", "result": "<10"},
      {"measurement": "organism growth (count) at 28 days", "setting": "A. niger; A. niger, 28 days, initial inoculum 8.0 × 10^6 per gram product, 0.7% Suttocide A", "result": "<10"},
      {"measurement": "kills at a concentration of", "setting": "A. niger; Aspergillus niger (Aspergillus brasiliensis), TABLE 1", "result": 0.7, "unit": "%"},
      {"measurement": "organism growth (count) at 48 hours", "setting": "Ps. cepacia; 48 hours", "result": "<10"},
      {"measurement": "organism growth (count) at 7 days", "setting": "Ps. cepacia; 7 days", "result": "<10"},
      {"measurement": "organism growth (count) at 28 days", "setting": "Ps. cepacia; 28 days", "result": "<10"},
      {"measurement": "organism growth (count) at 48 hours", "setting": "C. ablicans; C. ablicans, 48 hours, initial inoculum 4.3 × 10^6 per gram product, 0.7% Suttocide A", "result": "<10"},
      {"measurement": "organism growth (count) at 7 days", "setting": "C. ablicans; C. ablicans, 7 days, initial inoculum 4.3 × 10^6 per gram product, 0.7% Suttocide A", "result": "<10"},
      {"measurement": "organism growth (count) at 28 days", "setting": "C. ablicans; C. ablicans, 28 days, initial inoculum 4.3 × 10^6 per gram product, 0.7% Suttocide A", "result": "<10"},
      {"measurement": "kills at a concentration of", "setting": "C. ablicans; candida albicans, TABLE 1", "result": 0.7, "unit": "%"}
    ]}
  ]
}
